pIC50: −log10 of the molar value.
Legend:
[1] = target: T1, human prostaglandin E2 receptor EP1 subtype (Homo sapiens, UniProt P34995); assay: Calcium flux of human prostaglandin E2 receptor EP1 subtype; format: cell-based; settings: CHO-K1-Gα16 cells overexpressing human EP1, activated by prostaglandin E2; read-out: hEP1 Ca^2+ IC50
T1 construct: expressed in transfected cells; host or cells: CHO-K1-Gα16
T1 sequence (P34995 1-402): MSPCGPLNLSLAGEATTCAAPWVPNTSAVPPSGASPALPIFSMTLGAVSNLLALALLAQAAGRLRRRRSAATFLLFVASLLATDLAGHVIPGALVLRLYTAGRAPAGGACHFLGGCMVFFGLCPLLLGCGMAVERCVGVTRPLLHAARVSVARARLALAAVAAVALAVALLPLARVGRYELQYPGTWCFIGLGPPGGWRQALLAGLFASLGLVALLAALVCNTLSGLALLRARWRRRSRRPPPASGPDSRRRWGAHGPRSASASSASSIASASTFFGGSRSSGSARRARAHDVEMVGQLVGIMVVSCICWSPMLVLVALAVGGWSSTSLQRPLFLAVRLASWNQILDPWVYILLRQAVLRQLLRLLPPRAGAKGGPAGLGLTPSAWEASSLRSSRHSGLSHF
Description: (§1) CHO-K1-Gα16 cells at the logarithmic growth phase were transfected with human prostaglandin E2 Receptor subtypes EP1, EP2 or EP3 overexpressing vector by Lipofectamine 2000, then seeded in a 96-well plate (Falcon, CA) at a density of 20000 cells per 100 μL culture medium for overnight culture. On the second day, every single well were added with 100 μL calcium 5 detection reagents (Molecular Devices) and incubated in incubator at 37° C., 5% CO2 for 45 minutes. The compounds were diluted with HBSS detection buffer, then were added to 96-well plates. After 20 min incubation at room temperature in the dark, prostaglandin E2 at certain concentration was used to activate calcium flux of cells for detection (Flexstation 3, MD, CA).
(§2) Calculate the IC50 of the compounds of the invention in inhibiting the calcium flux of human EP1, EP2, and EP3 receptor (i.e. the concentration of drugs at which the intracellular Ca^2+ flux being inhibited by half after overexpressing human EP1, EP2, and EP3 receptors in CHO-K1-Gα16 cells). The IC50 of the drugs were calculated using GraphPad Prism 5.

[2] = target: T2, human prostaglandin E2 receptor EP2 subtype (Homo sapiens, UniProt P43116); assay: Calcium flux of human prostaglandin E2 receptor EP2 subtype; format: cell-based; settings: CHO-K1-Gα16 cells overexpressing human EP2, activated by prostaglandin E2; read-out: hEP2 Ca^2+ IC50
T2 construct: expressed in transfected cells; host or cells: CHO-K1-Gα16
Description: as §1, §2

[3] = target: T3, human prostaglandin E2 receptor EP3 subtype (Homo sapiens, UniProt P43115); assay: Calcium flux of human prostaglandin E2 receptor EP3 subtype; format: cell-based; settings: CHO-K1-Gα16 cells overexpressing human EP3, activated by prostaglandin E2; read-out: hEP3 Ca^2+ IC50
T3 construct: expressed in transfected cells; host or cells: CHO-K1-Gα16
T3 sequence (P43115 1-390): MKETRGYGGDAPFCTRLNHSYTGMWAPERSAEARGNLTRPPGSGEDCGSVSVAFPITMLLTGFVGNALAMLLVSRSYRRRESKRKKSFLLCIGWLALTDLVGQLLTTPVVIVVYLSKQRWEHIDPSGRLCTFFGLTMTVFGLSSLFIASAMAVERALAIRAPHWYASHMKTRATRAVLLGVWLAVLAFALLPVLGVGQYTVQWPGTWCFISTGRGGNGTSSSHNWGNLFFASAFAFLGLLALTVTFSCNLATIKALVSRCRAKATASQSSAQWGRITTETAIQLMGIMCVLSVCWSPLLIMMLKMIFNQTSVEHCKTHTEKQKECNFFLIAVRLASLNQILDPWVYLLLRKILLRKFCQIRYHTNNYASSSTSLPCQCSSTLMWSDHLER
Description: as §1, §2

[4] = test system: mouse colon cancer cells CT26; assay: CT26 subcutaneous tumor-bearing model, Balb/c mice; format: in vivo; settings: female Balb/c mice, 75 mg/kg/day
Description: 2×10^6 mouse colon cancer cells CT26 were subcutaneously injected into right side of each mouse's back (female Balb/c mouse, 6-8 weeks). The length and width of subcutaneous tumors in the back of mice were measured using vernier calipers, and tumor volume (mm^3)=(length(mm)×width(mm)×width(mm)×n)/6 was calculated. […] The volume of subcutaneous tumors on the back of mice was measured and counted twice a week. Continuous administrated for a period of 14 days and the changes of tumor volumes were recorded.
(§3) Mouse colon cancer cells MC38, pancreatic cancer cells Pan02, breast cancer cells 4T1, prostate cancer cells RM-1 and colon cancer cells CT26 were cultivated to required amount. Then, cells at a cell density of 5×10^5-2×10^6 were subcutaneously injected into right side of the back of selected female C57BL/6 mice aging 6-8 weeks (MC38, Pan02), male C57BL/6 mice aging 6-8 weeks (RM-1), female Balb/c mice aging 6-8 weeks (4T1, CT26) and female Balb/c nude mice aging 6-8 weeks (CT26). The length and width of subcutaneous tumors in the backs of mice were measured using vernier calipers, and tumor volume(mm^3)=(length(mm)×width(mm)×width(mm)×n)/6 was calculated. […] The volume of subcutaneous tumors on the back of mice was measured and counted 2-4 times a week. Continuous administrated for 12-22 days and the changes of tumor volumes were recorded.

[5] = test system: mouse colon cancer cells MC38; assay: MC38 subcutaneous tumor-bearing model, C57BL/6 mice; format: in vivo; settings: female C57BL/6 mice, 75 mg/kg/day, 12-22 days, FIG. 4
Source text: as §3

[6] = test system: pancreatic cancer cells Pan02; assay: Pan02 subcutaneous tumor-bearing model, C57BL/6 mice; format: in vivo, mouse; settings: female C57BL/6 mice, 75 mg/kg/day, 12-22 days, FIG. 4
Source text: as §3

breast cancer cells 4T1 = assay: 4T1 subcutaneous tumor-bearing model, Balb/c mice; format: in vivo, mouse; settings: female Balb/c mice, 75 mg/kg/day, 12-22 days, FIG. 4
Source text: as §3

[7] = test system: prostate cancer cells RM-1; assay: RM-1 subcutaneous tumor-bearing model, C57BL/6 mice; format: in vivo, mouse; settings: male C57BL/6 mice, 75 mg/kg/day, 12-22 days, FIG. 4
Source text: as §3

colon cancer cells CT26 = assay: CT26 subcutaneous tumor-bearing model, Balb/c nude mice; format: in vivo, mouse; settings: female Balb/c nude mice, 75 mg/kg/day
Source text: as §3

[8] = Cytotoxicity evaluation (CCK8), LLC; settings: mouse, LLC lung cancer cells
Description: (§4) Cells with a density of 2000-8000 cells per 100 μL medium were seeded in 96-well plates (Falcon, CA) and incubated for 24 hours, then treated with drugs having different concentration gradient (at least 4 replicates per concentration) and incubated at 37° C. in 5% CO2 incubator for 72 hours. Then cell viability was detected by CCK8 method. That is to say, add 10 μL CCK8 to each well and incubate for 0.33-2 h, and the OD values are read by microplate reader at 450 nm. The inhibition rate on cell survival of compounds with each concentration were calculated.
(§5) Inhibition rate on cell survival=(OD value of groups with each concentration/OD
(§6) value of control group)×100%±standard deviation.
(§7) The IC50 of drugs were calculated using GraphPad Prism 5.0.

[9] = Cytotoxicity evaluation (CCK8), 293; settings: human
[10] = Cytotoxicity evaluation (CCK8), MOSJ; settings: mouse, MOSJ osteosarcoma cells
Description: as §4, §5, §6, §7

[11] = Cytotoxicity evaluation (CCK8), CT26; settings: mouse, CT26 intestinal cancer cells
Description: as §4, §5, §6, §7

[12] = Cytotoxicity evaluation (CCK8), EMT-6; settings: mouse, EMT-6 breast cancer cells
Description: as §4, §5, §6, §7

[13] = Cytotoxicity evaluation (CCK8), PANC02; settings: mouse, PANC02 pancreatic cancer cells
Description: as §4, §5, §6, §7

T2 sequence (P43116 whole entry): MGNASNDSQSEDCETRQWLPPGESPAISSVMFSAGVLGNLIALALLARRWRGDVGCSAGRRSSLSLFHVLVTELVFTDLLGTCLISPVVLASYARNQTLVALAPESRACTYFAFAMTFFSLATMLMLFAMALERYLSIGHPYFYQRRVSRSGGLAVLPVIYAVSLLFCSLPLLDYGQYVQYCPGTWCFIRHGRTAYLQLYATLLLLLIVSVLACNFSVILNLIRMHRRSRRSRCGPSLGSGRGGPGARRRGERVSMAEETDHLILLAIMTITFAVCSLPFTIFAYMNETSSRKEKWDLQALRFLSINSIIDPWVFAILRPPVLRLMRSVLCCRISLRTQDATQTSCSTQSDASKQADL

`C[C@H](NC(=O)c1c(Cc2ccc(F)cc2)sc2c1CCOC2)c1ccc(C(=O)O)cc1` [YJ114, (S)-4-(1-(2-(4-fluorobenzyl)-5,7-dihydro-4H-thieno[2,3-c]pyran-3-carboxamido)ethyl)benzoic Acid] gave a pIC50 [1] of less than 5.00, a pIC50 [2] of less than 5.00 and a pIC50 [3] of less than 5.00. For the same compound, the “Inhibition of growth of colon cancer cells CT26 in subcutaneous tumor-bearing mice” value ([4]; 12 to 22-day administration (Example 6)) was “can efficiently inhibit the growth”, the “Inhibitory effect on growth of subcutaneous CT26 colon cancer” value ([4]; 14 days, vs negative control, FIG. 3) was “able to suppress the growth” and the “Inhibition of growth of colon cancer cells MC38 in subcutaneous tumor-bearing mice” value [5] was “can efficiently inhibit the growth”. For the same compound, the “Inhibition of growth of pancreatic cancer cells Pan02 in subcutaneous tumor-bearing mice” value [6] was “can efficiently inhibit the growth”, the “Inhibition of growth of breast cancer cells 4T1 in subcutaneous tumor-bearing mice” value (breast cancer cells 4T1) was “can efficiently inhibit the growth” and the “Inhibition of growth of prostate cancer cells RM-1 in subcutaneous tumor-bearing mice” value [7] was “can efficiently inhibit the growth”. The “Inhibition of CT26 tumor growth in Balb/c nude mice with immune system deficiency” value (colon cancer cells CT26) was “can not inhibit the tumor growth”, the IC50 at 72 h [8] was greater than 100 µM and the IC50 at 72 h [9] was greater than 100 µM. For the same compound, the IC50 at 72 h [10] was greater than 100 µM, the IC50 at 72 h [11] was greater than 100 µM and the IC50 at 72 h [12] was greater than 100 µM. The IC50 at 72 h [13] was greater than 100 µM.

— patent US20210139497A1, “THIENOCYCLIC COMPOUND AND SYNTHESIS METHOD THEREFOR AND APPLICATION THEREOF” (SHANGHAI YUYAO BIOTECH LTD., priority 2017, published 2021)
